Here are results for one molecule from US20240336565A1, “SOLID FORMS OF OSANETANT” (Acer Therapeutics, Inc., priority 2021, published 2024).

Data set [1] can be described thus: Comparative studies: 7-day stability. In kind it is physicochemical.
A short description of data set [2]: Long term stability: thermal stability of solids at 60° C. The data set is classed as physicochemical. Particulars: solids, darkened oven at 60° C., up to 14 days. Here is the method:
(§1) Osanetant p-toluenesulfonic acid Form 1 and osanetant benzenesulfonic acid Form 1 were tested for long-term stability across a number of different conditions, as detailed below.
Thermal stability of solids at 60° C.—Osanetant p-toluenesulfonic acid Form 1 and osanetant benzenesulfonic acid Form 1 were stored in a darkened oven at 60° C. in glass vials. Samples were taken after T=1, 2, 4, 7, and 14 days storage. […] The purity of the resulting material is described in Table 41: […]

Data set [3] can be described thus: Long term stability: base (2M NaOH) at ambient temperature. Particulars: 2M NaOH, dark, ambient, up to 14 days. The data set is classed as physicochemical. Here is the method: as §1
Base at Ambient Temperature—Osanetant p-toluenesulfonic acid Form 1 and osanetant benzenesulfonic acid Form 1 were prepared at an osanetant content 10 times the normal working concentration then added to HPLC vials containing 2M NaOH and stored in the dark at ambient laboratory conditions. Samples were diluted to 2 mg/mL for analysis and were taken after T=1, 2, 4, 7, and 14 days storage. […] The purity of the resulting material is described in Table 44: […]

Data set [4] in a line: Long term stability: oxidation (6% H2O2) at ambient temperature. The data set is classed as physicochemical. The settings on record: 6% H2O2, dark, ambient, up to 14 days. The protocol: as §1
Oxidation at Ambient Temperature-Osanetant p-toluenesulfonic acid Form 1 and osanetant benzenesulfonic acid Form 1 were prepared at an osanetant content 10 times the normal working concentration then added to HPLC vials containing 6% H2O2 and stored in the dark at ambient laboratory conditions. Samples were diluted to 2 mg/mL for analysis and were taken after T=1, 2, 4, 7, and 14 days storage. […] The purity of the resulting material is described in Table 46: […]

Data set [5] in a line: Hydration study (stirring in ethanol: water mixtures, XRPD). The data set is classed as physicochemical. Here is the method: 20 mg of osanetant p-toluenesulfonic acid Form 1 was stirred in the appropriate ethanol: water mixtures for 24 h at 25° C. Where clear solutions were observed after 1 h at 25° C., 0.5 mL of liquor was removed, and additional solid was added until a slurry was maintained. After 24 h total, the experiments were isolated by centrifugation, and the solids were analyzed by XRPD.
Osanetant benzenesulfonic acid Form 3 (20 mg) was stirred in the appropriate ethanol: water mixtures for 24 h at 25° C. Where clear solutions were observed after 1 h at 25° C., 0.5 mL of liquor was removed from the Aw 0.257 sample, and additional solid was added until a slurry was maintained. After 24 h total, the experiments were isolated by centrifugation, and the solids were analyzed by XRPD.

The nature of data set [6]: Solid form stability observations (scale up / polymorph work: drying, ambient conditions, aqueous media). The data set is classed as physicochemical. The protocol:
Two anhydrous forms of the osanetant p-toluenesulfonic acid were synthesized. […] Form 6, described below, was a stable anhydrous form, but hydrated in water and aqueous solvent mixtures.
Advantageously, Form 1 (hydrate) and Form 6 (anhydrous) were stable on drying. Form 1 re-hydrated at room temperature and pressure after KF analysis, when it was heated in an oven to remove the water.
The experiment was cooled to 5° C. at a rate of 0.1° C./min and stirred at 5° C. for 18 h. The slurry was isolated be Buchner filtration: 42.5 mm Ø grade 1 Whatman filter paper; fast Filtration (<30 s); the cake was washed with 1 mL of ethyl acetate; the isolated solids were dried at 40° C. under vacuum for 72 h. […]

The nature of data set [7]: Long term stability: oxidation (6% H2O2) at 60° C. In kind it is physicochemical. The settings on record: 6% H2O2, 60° C., up to 14 days. The protocol: as §1
Oxidation at 60° C.—Osanetant p-toluenesulfonic acid Form 1 and osanetant benzenesulfonic acid Form 1 were prepared at an osanetant content 10 times the normal working concentration then added to HPLC vials containing 6% H2O2 and stored in a darkened oven at 60° C. Samples were diluted to 2 mg/mL for analysis and were taken after T=1, 2, 4, 7, and 14 days storage. […] The purity of the resulting material is described in Table 47: […]

Data set [8] in a line: Long term stability: acid stability (2M HCl) at ambient temperature. The settings on record: 2M HCl, dark, ambient, up to 14 days. In kind it is physicochemical. The protocol:
as §1
Acid Stability at Ambient Temperature-Osanetant p-toluenesulfonic acid Form 1 and osanetant benzenesulfonic acid Form 1 were prepared at an osanetant content 10 times the normal working concentration then added to HPLC vials containing 2M HCl and stored in the dark at ambient laboratory conditions. Samples were diluted to 2 mg/mL for analysis and were taken after T=1, 2, 4, 7, and 14 days storage. […] The purity of the resulting material is described in Table 42: […]

The nature of data set [9]: Disproportionation study (stirring in water, XRPD, pH of liquor). The data set is classed as physicochemical. The settings on record: 10 mg in 1 mL of water, 24 h at 25° C. The protocol: After 24 h total, a white slurry was observed and was isolated by centrifugation. The solids were analyzed by XRPD. The pH of the filtered liquor was measured at 5.63. […] After 24 h total, a white slurry was observed and was isolated by centrifugation. The solids were analyzed by XRPD. The pH of the filtered liquor was measured (pH=5.09).

A short description of data set [10]: Hygroscopicity / dynamic vapor sorption (DVS). In kind it is physicochemical. Here is the method:
The osanetant p-toluenesulfonic acid Form 1 solids consisted of aggregated crystals with an undefined morphology. Select peaks which can be used to characterize osanetant p-toluenesulfonic acid Form 1 include one or more of 11.4°2θ±0.2°2θ, 18.0°2θ±0.2°2θ, 19.0°2θ±0.2°2θ, 19.3°2θ±0.2°2θ, 19.8°2θ±0.2°2θ, or 21.1°2θ±0.2°2θ. In some embodiments, osanetant p-toluenesulfonic acid Form 1 is a monohydrate.

The nature of data set [11]: Thermodynamic solubility in water and pH buffers.

Each structure is given as a SMILES string. Entries after “also recorded” stand apart in the source; their conditions may differ.

For the molecule `CC(=O)N(C)C1(c2ccccc2)CCN(CCC[C@]2(c3ccc(Cl)c(Cl)c3)CCCN(C(=O)c3ccccc3)C2)CC1.Cc1ccc(S(=O)(=O)O)cc1` [osanetant p-toluenesulfonic acid Form 1, (R)-N-(1-(3-(1-benzoyl-3-(3,4-dichlorophenyl)piperidin-3-yl)propyl)-4-phenylpiperidin-4-yl)-N-methylacetamide p-toluenesulfonic acid], the “impurities on 7-day stability” value in [1] (80° C.) is “increase in impurities”. Further, the “solid form on 7-day stability” value in data set [1] (7 days, elevated temperature where stated) is “form was retained”. In data set [1] (in slurry at various water activity and pH, and at 40° C./75% RH and 80° C.), the physical stability result is “physically stable”. Moreover, the “degradation on storage (purity)” value in [2], in data set [3], in [4], in data set [7] and in data set [8] was “lack of degradation” each time. Moreover, the “XRPD form after stirring in ethanol: water mixtures” value in data set [5] (24 h at 25° C., all mixtures tested) was “no change in form”. Besides, the XRPD entry is given as “Form 1” in data set [5] (slurry in ethanol:water 63.6:36.4 % v/v, calc Aw 0.745, 24 h at 25° C.); “Form 1” in data set [5] (slurry in ethanol:water 92.9:7.1 % v/v, calc Aw 0.507, 24 h at 25° C.); “Form 1” in data set [5] (slurry in ethanol:water 98.4:1.6 % v/v, calc Aw 0.257, 24 h at 25° C.). For the same molecule, the “form stability / re-hydration under ambient conditions” value in data set [6] (ambient conditions / room temperature and pressure) is reported as “re-hydrated”. Further, in data set [6] (dehydrates to Form 5), the dehydration temperature entry was “above 85 °C”. The form on drying entry in [6] (drying (40° C. under vacuum where stated)) is reported as “stable; also recorded: no change”. The “XRPD form / disproportionation after stirring in water” value in [9] is listed as “no change in form; also recorded: did not disproportionate”. The “pH of the filtered liquor” value in data set [9] is recorded as 5.63. The “hygroscopicity / water loss on DVS analysis” value in [10] is on record as “did not lose the water”. Moreover, in data set [10] (at 80% RH), the “weight gain (hygroscopicity)” value is recorded as 0.2 wt. %. Also, the “Solubility in water and pH buffers” value in data set [11] is on record as “low”.
